One data set has as its system E. faecium OC3312. Description: MIC by microdilution broth method (NCCLS), E. faecium OC3312. The data set is classed as cell-based. The note with it: Enterococcus faecium, OC3312, microdilution broth, cation adjusted Mueller-Hinton broth, 35° C., 16-20 hours; read-out: MIC (μg/mL) E. faecium OC3312. As to the method:
(§1) Minimal inhibitory concentration (MIC) has been an indicator of in vitro antibacterial activity widely used in the art. The in vitro antimicrobial activity of the compounds was determined by the microdilution broth method following the test method from the National Committee for Laboratory Standards (NCCLS). This method is described in the NCCLS Document M7-A4, Vol. 17, No.2, “Methods for Dilution Antimicrobial Susceptibility Test for Bacteria that Grow Aerobically-Fourth Edition”, which is incorporated herein by reference.
(§2) In this method two-fold serial dilutions of drug in cation adjusted Mueller-Hinton broth are added to wells in microdilution trays. The test organisms are prepared by adjusting the turbidity of actively growing broth cultures so that the final concentration of test organism after it is added to the wells is approximately 5×10^4 CFU/well.
(§3) Following inoculation of the microdilution trays, the trays are incubated at 35° C. for 16-20 hours and then read. […] The amount of growth in the wells containing the test compound is compared with the amount of growth in the growth-control wells (no test compound) used in each tray. As set forth in Table 1, compounds of the present invention were tested against a variety of Gram positive and Gram negative pathogenic bacteria resulting in a range of activities, from 1 to ≧128 μg/mL depending on the organism tested.

A further data set relates to MRSA OC 2878. Description: MIC by microdilution broth method (NCCLS), MRSA OC 2878. The note with it: Staphylococcus aureus, MRSA, cation adjusted Mueller-Hinton broth, 35° C., 16-20 hours, read-out: MIC (μg/mL) MRSA OC 2878. The data set is classed as cell-based, Staphylococcus aureus. As to the method: as §1, §2, §3
Another data set deals with S. aureus. Description: MIC by microdilution broth method (NCCLS), S. aureus Broth. The data set is classed as cell-based. The note with it: Staphylococcus aureus, cation adjusted Mueller-Hinton broth, 35° C., 16-20 hours, read-out: MIC (μg/mL) S. aureus Broth. As to the method: as §1, §2, §3

Values after ≈ are worked out from the molar mass of the structure shown. Bounds are passed on as bounds.

MIC and melting point data for 17 compounds are collected here from patent US20020103377A1, “Piperidinyloxy and pyrrolidinyloxy oxazolidinone antibacterials” (priority 1999, published 2002).

`CC(=O)NC[C@H]1CN(c2ccc(OC3CCN(S(=O)(=O)N(C)C)CC3)c(F)c2)C(=O)O1` [Compound 23, (S)-N-[[3-[3-Fluoro-4-{N-(dimethylsulfamoyl)piperidinyl-4-oxy}phenyl]-2-oxo-5-oxazolidinyl]methyl]acetamide] returned a melting point of 132 to 134 °C. Also, the MIC with E. faecium OC3312 was 16 µg/mL (≈ 34.9 µM). Also, in the data set with MRSA OC 2878, the MIC turned out to be 4 µg/mL (≈ 8.72 µM). Besides, the MIC in the data set with S. aureus was found to be 16 µg/mL (≈ 34.9 µM).

Compound `CC(=O)NC[C@H]1CN(c2ccc(OC3CCN(C(=O)N(C)C)CC3)c(F)c2)C(=O)O1` [Compound 24, (S)-N-[[3-[3-Fluoro-4-{N-(dimethylcarbamoyl)piperidinyl-4-oxy}phenyl]-2-oxo-5-oxazolidinyl]methyl]acetamide] had a melting point of 129 to 131 °C. For the same compound, the MIC with E. faecium OC3312 turned out to be 32 µg/mL (≈ 75.7 µM). In addition, in the data set on MRSA OC 2878, the MIC turned out to be 16 µg/mL (≈ 37.9 µM). Also, the MIC in the data set on S. aureus came out at 8 µg/mL (≈ 18.9 µM).

On to `CC(=O)NC[C@H]1CN(c2ccc(OC3CCN(C(=O)N4CCOCC4)CC3)c(F)c2)C(=O)O1` [Compound 25, (S)-N-[[3-[3-Fluoro-4-{N-(4-morpholinocarbamoyl)piperidinyl-4-oxy}phenyl]-2-oxo-5-oxazolidinyl]methyl]acetamide], for which the melting point is 167 to 170 °C. Also, in the data set on E. faecium OC3312, the MIC is 64 µg/mL (≈ 138 µM). Moreover, the MIC with MRSA OC 2878 was 32 µg/mL (≈ 68.9 µM). The MIC with S. aureus was 32 µg/mL (≈ 68.9 µM).

Turning to `CC(=O)NC[C@H]1CN(c2ccc(OC3CCN(C(=O)CCCc4cccnc4)CC3)c(F)c2)C(=O)O1` [Compound 26, (S)-N-[[3-[3-Fluoro-4-{N-(4-pyridin-3-yl-butyryl)piperidinyl-4-oxy}phenyl]-2-oxo-5-oxazolidinyl]methyl]acetamide], the melting point lay in the range of 42 to 45 °C. Besides, the MIC with E. faecium OC3312 is 16 µg/mL (≈ 32.1 µM). The MIC in the data set on MRSA OC 2878 came out at 8 µg/mL (≈ 16 µM). The MIC with S. aureus was found to be 16 µg/mL (≈ 32.1 µM).

`CC(=O)NC[C@H]1CN(c2ccc(OC3CCN(C(=O)CCc4cccnc4)CC3)c(F)c2)C(=O)O1` [Compound 27, (S)-N-[[3-[3-Fluoro-4-{N-(3-pyridin-3-yl-propionyl)piperidinyl-4-oxy}phenyl]-2-oxo-5-oxazolidinyl]methyl]acetamide] showed a melting point of 45 to 47 °C. The MIC in the data set with E. faecium OC3312 worked out at 16 µg/mL (≈ 33 µM). The MIC in the data set with MRSA OC 2878 turned out to be 16 µg/mL (≈ 33 µM). Moreover, the MIC in the data set with S. aureus was found to be 16 µg/mL (≈ 33 µM).

Compound `CC(=O)NC[C@H]1CN(c2ccc(OC3CCCN(C(=O)OC(C)(C)C)C3)c(F)c2)C(=O)O1` (stereo partly drawn) [Compound 34, (S)-N-[[3-[3-Fluoro-4-{N-(t-butoxycarbonyl)piperidinyl-3-oxy}phenyl]-2-oxo-5-oxazolidinyl]methyl]acetamide] displayed a melting point of 60 to 63 °C. Also, the MIC in the data set on E. faecium OC3312 was greater than 128 µg/mL. Further, the MIC with MRSA OC 2878 came out at 64 µg/mL (≈ 142 µM). Also, the MIC with S. aureus stood at 128 µg/mL (≈ 284 µM).

As to `CC(=O)NC[C@H]1CN(c2ccc(OC3CCCN(c4ncccn4)C3)c(F)c2)C(=O)O1` (stereo partly drawn) [Compound 38, (S)-N-[[3-[3-Fluoro-4-{N-(2-pyrimidinyl)piperidinyl-3-oxy}phenyl]-2-oxo-5-oxazolidinyl]methyl]acetamide], the melting point lay in the range of 130 to 131 °C. Also, the MIC with E. faecium OC3312 amounted to 32 µg/mL (≈ 74.5 µM). For the same compound, in the data set with MRSA OC 2878, the MIC is 8 µg/mL (≈ 18.6 µM). Also, the MIC in the data set with S. aureus came out at 16 µg/mL (≈ 37.3 µM).

`CC(=O)NC[C@H]1CN(c2ccc(OC3CCN(C(=O)COCc4ccccc4)C3)c(F)c2)C(=O)O1` (stereo partly drawn) [Compound 39, (S)-N-[[3-[3-Fluoro-4-{N-(benzyloxyacetyl)pyrrolidinyl-3-oxy}phenyl]-2-oxo-5-oxazolidinyl]methyl]acetamide] displayed a melting point of 53 to 55 °C. In addition, the MIC in the data set with E. faecium OC3312 was 16 µg/mL (≈ 33 µM). Also, the MIC in the data set with MRSA OC 2878 is 16 µg/mL (≈ 33 µM). In addition, the MIC in the data set with S. aureus turned out to be 16 µg/mL (≈ 33 µM).

In turn, `CC(=O)NC[C@H]1CN(c2ccc(OC3CCN(C(=O)CO)C3)c(F)c2)C(=O)O1` (stereo partly drawn) [Compound 40, (S)-N-[[3-[3-Fluoro-4-{N-(α-hydroxyacetyl)pyrrolidinyl-3-oxy}phenyl]-2-oxo-5-oxazolidinyl]methyl]acetamide] returned a melting point of 97 to 99 °C. Besides, in the data set with E. faecium OC3312, the MIC was determined as 16 µg/mL (≈ 40.5 µM). For the same compound, the MIC in the data set with MRSA OC 2878 is 8 µg/mL (≈ 20.2 µM). Besides, the MIC in the data set with S. aureus stood at 4 µg/mL (≈ 10.1 µM).

`CC(=O)NC[C@H]1CN(c2ccc(OC3CCN(C(=O)OC(C)(C)C)CC3)nc2)C(=O)O1` [Compound 41, (5S)-3-[6-{N-(t-Butoxycarbonyl)piperidinyl-4-oxy}-pyridin-3-yl]-5-methylacetamide-oxazolidin-2-one] showed a melting point of 99 to 101 °C. Further, in the data set with E. faecium OC3312, the MIC is greater than 128 µg/mL. Besides, the MIC with MRSA OC 2878 is 64 µg/mL (≈ 147 µM). Further, in the data set with S. aureus, the MIC came to 128 µg/mL (≈ 295 µM).

Compound `CC(=O)NC[C@H]1CN(c2ccc(OC3CCN(S(C)(=O)=O)CC3)nc2)C(=O)O1` [Compound 44, (5S)-3-[6-{N-(Methanesulfonyl)piperidinyl-4-oxy}-pyridin-3-yl]-5-methylacetamide-oxazolidin-2-one] gave a melting point of 175 to 176 °C. In addition, in the data set with E. faecium OC3312, the MIC worked out at 128 µg/mL (≈ 310 µM). The MIC in the data set with MRSA OC 2878 amounted to 64 µg/mL (≈ 155 µM). Also, the MIC in the data set with S. aureus is 32 µg/mL (≈ 77.6 µM).

Regarding `CC(=O)NC[C@H]1CN(c2ccc(OC3CCN(C(=O)c4ccccc4)CC3)nc2)C(=O)O1` [Compound 46, (5S)-3-[6-{N-(Benzoyl)piperidinyl-4-oxy}-pyridin-3-yl]-5-methylacetamide-oxazolidin-2-one], the melting point lay in the range of 180 to 182 °C. Further, the MIC with E. faecium OC3312 was greater than 128 µg/mL. For the same compound, the MIC with MRSA OC 2878 was 64 µg/mL (≈ 146 µM). For the same compound, the MIC in the data set with S. aureus stood at 64 µg/mL (≈ 146 µM).

On to `CC(=O)NC[C@H]1CN(c2ccc(OC3CCN(C(=O)c4ccco4)CC3)c(F)c2)C(=O)O1` [Compound 51, (S)-N-[[3-[3-Fluoro-4-{N-(2-furoyl)piperdinyl-4-oxy}phenyl]-2-oxo-5-oxazolidinyl]methyl]acetamide], for which the melting point lay within 134 to 136 °C. The MIC in the data set on E. faecium OC3312 is 8 µg/mL (≈ 18 µM). Moreover, the MIC with MRSA OC 2878 is 8 µg/mL (≈ 18 µM). Moreover, the MIC in the data set with S. aureus is 16 µg/mL (≈ 35.9 µM).

As for `CC(=O)NC[C@H]1CN(c2ccc(OC3CCN(C(=O)COC(C)=O)CC3)c(F)c2)C(=O)O1` [Compound 53, (S)-N-[[3-[3-Fluoro-4-{N-(acetoxyacetyl)piperidinyl-4-oxy}phenyl]-2-oxo-5-oxazolidinyl]methyl]acetamide], the melting point lay within 146 to 147.5 °C. Moreover, the MIC in the data set on E. faecium OC3312 came out at 16 µg/mL (≈ 35.4 µM). In addition, the MIC with MRSA OC 2878 worked out at 8 µg/mL (≈ 17.7 µM). The MIC in the data set with S. aureus is 8 µg/mL (≈ 17.7 µM).

`CC(=O)NC[C@H]1CN(c2ccc(OC3CN(C(=O)COCc4ccccc4)C3)c(F)c2)C(=O)O1` [Compound 58, (S)-N-[[3-[3-Fluoro-4-{N-(benzyloxyacetyl)azetidinyl-3-oxy}phenyl]-2-oxo-5-oxazolidinyl]methyl]acetamide]: the melting point fell in the range of 119 to 121 °C. Besides, the MIC in the data set with E. faecium OC3312 amounted to 4 µg/mL (≈ 8.48 µM). The MIC in the data set with MRSA OC 2878 is 4 µg/mL (≈ 8.48 µM). Further, the MIC in the data set on S. aureus was 8 µg/mL (≈ 17 µM).

Compound `CC(=O)NC[C@H]1CN(c2ccc(OC3CN(C(=O)COC(C)=O)C3)c(F)c2)C(=O)O1` [Compound 59, (S)-N-[[3-[3-Fluoro-4-{N-(acetoxyacetyl)azetidinyl-3-oxy}phenyl]-2-oxo-5-oxazolidinyl]methyl]acetamide] registered a melting point of 172 to 175 °C. Moreover, in the data set on E. faecium OC3312, the MIC is 16 µg/mL (≈ 37.8 µM). For the same compound, the MIC in the data set on MRSA OC 2878 came out at 8 µg/mL (≈ 18.9 µM). Besides, in the data set on S. aureus, the MIC stood at 4 µg/mL (≈ 9.45 µM).

The compound `CC(=O)NC[C@H]1CN(c2ccc(OC3CN(C(=O)CO)C3)c(F)c2)C(=O)O1` [Compound 61, (S)-N-[[3-[3-Fluoro-4-{N-(α-hydroxyacetyl)azetidinyl-3-oxy}phenyl]-2-oxo-5-oxazolidinyl]methyl]acetamide] came in with a melting point of 158 to 160 °C. The MIC in the data set with E. faecium OC3312 is 128 µg/mL (≈ 336 µM). In addition, the MIC with MRSA OC 2878 stood at 64 µg/mL (≈ 168 µM). For the same compound, the MIC in the data set with S. aureus was 32 µg/mL (≈ 83.9 µM).
